Data on nine compounds can be found in US5196577A, “Compound marked with tritium, its preparation and its use in particular in the determination of the affinity of retinoids for their nuclear receptors and their cytosolic binding protein” (Centre International de Recherches Dermatologiques, priority 1988, dated 1993).

One data set has as its system F9 cells. Nature of the data set: Production of secreted plasminogen activator by differentiating F9 cells (biological activity, CPA50). It counts as cell-based, murine. The conditions noted are these: for EC50: Mus musculus, read-out: BIOLOGICAL ACTIVITY CPA50. An excerpt:
The biological activity of the retinoids can be measured on the F9 cells by quantifying the production of the plasminogen activator secreted consecutively with the differentiation of said cells, caused by the retinoids. CPA50 is the concentration of retinoids causing an induction of 50% of the maximum of the secreted plasminogen activator. By comparing the IC50 and CPA50 values on Table 1, it can be noted that there is an excellent correlation between the affinity of the retinoids for the RARs and their biological activity (see also the straight regression line of FIG. 4). The only exception is retinoic acid itself. […] In effect, the IC50 measurement is carried out after an incubation of 3 hours, while the CPA50 measurement is carried out after a incubation of 3 days.

Data set [1] concerns the target T1, CRABP (Rattus norvegicus, UniProt P62966).
T1 construct: rat testicle cytosol containing CRABP; from tissue
Put plainly: Competition with the claimed marked compound for CRABP. It counts as binding. The procedure:
These competition experiments are carried out in the following manner: a fixed quantity of radioactive ligand (corresponding substantially to the demi-saturation, in our case 4 nM) is mixed with increasing quantities of cold ligand (non-radioactive). Then the binding protein is added and the quantity of radioactive ligand fixed to the balance is determined (in % of the initial fixing in the absence of cold ligand, for the quantity of CRABP under consideration).
From the competition curves, the IC50 (concentration of cold ligand reducing the attachment of the tritiated ligand by 50%) is determined. This IC50 value enables the calculation in each case of the dissociation constant from the balance (Kd) for the cold ligand.

The subject of data set [2] is retinoic acid nuclear receptors (RARs). Put plainly: Competition with the tritiated compound of example 1 for RARs in F9 cells (HPSEC of nucleosol). The data set is classed as binding, murine. The conditions noted are these: for IC50: competition with 2 nM tritiated compound of example 1, incubation of 3 hours, read-out: AFFINITY RARs:IC50. The method, then: (§1) Cultures of F9 cells of murin embryonic carcinoma (normally four 90 mm dishes containing in total 2-4×10^7 cells per incubation condition) were washed once with PBS (saline phosphate buffer) and incubated for 3 hours in a medium, without serum, supplemented with the marked retinoid in the absence or the presence of a cold retinoid homolog or heterolog (to verify the specificity and for comparison experiments). The cells were then detached with a trypsin EDTA mixture and numbered with a Burker hemocytometer. The nucleosol containing RARs was extracted from the purified nuclei using the method described by Daly and Redfern (1987) (that is, after treatment using DNAase and NaCl 0.6M), and analyzed using high performance exclusion chromatography (HPSEC). 50 μl of marked extract were injected on a 9×250 mm GF250 column (Dupont de Nemours). The elution was carried out in a buffer 0.3M KH2 PO4 pH 7.8 at a rate of 1 ml/min. The protein content was followed by measuring the optical density at 280 nm. 28 fractions of 0.3 ml each were collected and counted in Picofluor (Packard) scintillating agent. For each retinoid concentration, the number of bonded molecules was determined using the surface of the radioactivity peak and the calculated concentration of demi-saturation (C50). […] The dose-response curves and the competition curves were analyzed on a computer through non-linear regression using the various forms of the Clark equation.
In view of its stability and its excellent affinity for the RARs, the compound of example 1 in principle enables the determination by competition of the affinity of no matter which retinoid for the RARs.
The […] profiles are obtained after incubation of the F9 cells with 2×10^-9 M of the compound of example 1 in the absence (- ) or in the presence of 10^-9 M(.quadrature.-.quadrature.), 10^-8 M (- ), 10^-7 M (Δ-Δ), 10^-6 M (- ) of cold competitors. I=the unmarked compound of example 1. RA=retinoic acid. For each competition concentration, the peak surface is expressed as a percentage of the surface obtained with the compound of example 1 without competition.
By measuring the surface of the radioactive peak for each concentration of cold competition, it is possible to trace the competition sigmoids. Data processing of these curves enables the determination of the IC50 (50% inhibiting concentration) of each retinoid.

For data set [3], the target named is T1, CRABP. Put plainly: Direct fixing (saturation) of tritiated ligand on CRABP in rat testicle cytosol. It counts as binding. The conditions noted are these: for non-specific fixing as part of total fixing on CRABP: 1 μM cold homolog ligand; for concentration of CRABP in rat testicle cytosol found with the marked retinoid: saturating concentration of marked retinoid. The procedure:
The difference (- ) represents the specific bond.
The total fixing (non-specific+specific (1-1) is obtained by incubation of increasing concentrations (up to a maximum of 125 nM) of the claimed compound with a constant quantity (0.3 ml) of a rat testicle homogenate (CRABP-rich organ). The non-specific fixing of the tritiated compound is determined in parallel, by measuring the fixing with increasing concentrations of the radioactive ligand in the presence of a large excess (1 μM) of cold homolog ligand (.quadrature.-.quadrature.). An incubation time of two hours is necessary for the establishment of balanced conditions.
Once the balance is achieved, the tritiated CRABP-ligand complex is separated from the non-bonded ligand by filtration on a Sephadex G25 exclusion gel column (BIO-Rad econo columns, 0.5× 20 cm): the complex is eluted (elution peak at 2.5 ml), while the non-bonded ligand is retained in totality on the column. […] The elution is done directly in scintillation tubes and the radioactivity is measured by counting.
The difference between the total fixing curve (- )and the non-specific fixing curve (.quadrature.-.quadrature.) gives the specific fixing curve ( - ). Analysis of this curve provides the dissociation constant with the balance (Kd), which is the concentration of product necessary to saturate 50% of the CRABP. This constant is a measurement of the affinity of the ligand for its binding protein, with the Kd being inversely proportional to the affinity (the lower the Kd, the greater the affinity).
The concentration of CRABP in the rat testicle cytosol used for the experiment can be determined in binding experiments where the marked retinoids are used at a saturating concentration.

Data set [4] is described as follows: Stability of ligand (general statements). It counts as physicochemical. The conditions noted are these: statement in words, no data.
In data set [5] the test system is retinoic acid nuclear receptors (RARs). Put plainly: Direct fixing of tritiated ligand on RARs of F9 cells (HPSEC of nucleosol). It counts as binding, murine. As to conditions: 200 nM tritiated ligand; for specific fixing on RARs in presence of excess cold homolog ligand: 100-fold excess (20000 nM) cold ligand, FIG. 1; for ligand fixed to the RARs per cell: FIG. 2. The procedure:
as §1
When the above-describe method is used and the F9 cells are incubated with the compound of example 1 at a concentration of 200 nM, a single radioactivity peak is observed in the nuclear extract (FIG. 1B). The molecular weight corresponding to the average fraction of the peak is approximately 45 kDa, a number close to the molecular weight of human RARs, as has been calculated from the sequence of their DNAc (Petkovich et al, 1987; Brand et al, 1988), and is compatible with the 4S sedimentation coefficient of murin receptors (Daly & Redfer, 1987). The fixing is specific since it is abolished when the cells are coincubated with an excess of 100 times of the cold compound I (FIG. 1B). There is no CRABP in the nucleosoilc extract of F9, as already underlined by Daly and Redfern (1987).
It can be noted that the radioactive peak elutes at the same position as with the compound of example 1.
The two compounds were used at a concentration of 200 nM. The quantity of ligand bonded to the RARs is expressed in molecules per cell.
To determine the concentration of the compound of example 1 giving 50% saturation of the RARs (C50), a saturation curve has been traced expressing the surface of the radioactive peak as a function of varied concentrations of the compound of example 1. The C50 is between 0.5 and 2 nM.

The conditions of data set [6]: by radiolysis, oxidation and photolysis; background statement; cited from earlier work.
The mark [7] stands for this setting: 72 h, concentration causing induction of 50% of the maximum of secreted plasminogen activator, F9 cells, incubation of 3 days.
Where [8] appears, read: Table 1, Kd calculated from competition IC50, radioligand about 4 nM, read-out: AFFINITY CRABP:Kd.

Each structure is given as a SMILES string. “Also recorded” adds a separate entry of the source. Where two headings read alike, the source gives them in different places. Where only a bound is given, the exact number is not on record here.

T1 sequence (P62966 whole entry): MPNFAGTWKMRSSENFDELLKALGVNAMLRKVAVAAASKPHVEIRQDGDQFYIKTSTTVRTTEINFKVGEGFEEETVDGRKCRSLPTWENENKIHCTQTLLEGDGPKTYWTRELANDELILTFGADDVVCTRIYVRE

With `CC1(C)CCC(C)(C)c2cc(-c3cc4ccc(C(=O)O)cc4s3)ccc21` [Compound IV, 2(5,6,7,8-tetrahydro-5,5,8,8-tetramethyl-2-naphthyl)-6-benzo(b)thiophene carboxylic acid], the EC50 in the data set on F9 cells (F9, 72 h) worked out at 53 nM. The affinity at CRABP [1], expressed as Kd, was 2 nM. Besides, in data set [2] (F9 cells), the IC50 is 77 nM.
`CC1=C(/C=C/C(C)=C/C=C/C(C)=C/C(=O)O)C(C)(C)CCC1` [Retinoic acid]: the EC50 in the data set on F9 cells (F9, 72 h) was determined as 350 nM. The “non-specific fixing as part of total fixing on CRABP” value at CRABP [3] (rat testicle) is reported as “approximately 25%”. At CRABP [3], the “concentration of CRABP in rat testicle cytosol found with the marked retinoid” value was 10-12 pmol/mg protein. For the same compound, in data set [4], the “stability of the ligand” value was “high instability”. In addition, in data set [5], the “specific fixing on RARs in presence of excess cold homolog ligand” value is recorded as “the peak is not observed” and the “ligand fixed to the RARs per cell” value was “approximately 4,000 molecules per cell”. Further, the IC50 in data set [2] (F9 cells) worked out at 5 nM. Further, in data set [6], the “degradation of retinoic acid” value is recorded as “rapidly degraded”.
Take `CC1(C)CCC(C)(C)c2cc(C(=O)Nc3ccc(C(=O)O)cc3)ccc21` [Compound VII, 4(5,6,7,8-tetrahydro-5,5,8,8-tetramethyl-2-naphthamido) benzoic acid]: the EC50 in the data set with F9 cells (setting [7]) is 85 nM. Moreover, on CRABP [1] (setting [8]), the Kd was 200 nM. Besides, the IC50 in data set [2] (F9 cells) amounted to 76 nM.
Consider `CC1(C)CCC(C)(C)c2cc(-c3ccc4cc(C(=O)O)ccc4c3)ccc21` [Compound V, 6(5,6,7,8-tetrahydro-5,5,8,8-tetramethyl-2-naphthyl)-2-naphthoic acid], for which, in the data set on F9 cells (setting [7]), the EC50 turned out to be 66 nM. Besides, the Kd at CRABP [1] (setting [8]) is 20 nM. For the same compound, the IC50 in data set [2] (F9 cells) amounted to 12 nM.
Regarding `CC1(C)CCC(C)(C)c2cc3cc(-c4ccc(C(=O)O)cc4)ccc3cc21` [Example 1, 4-(5,6,7,8-tetrahydro-5,5,8,8-tetramethyl-2-anthracenyl) benzoic acid marked with tritium], the “character of non-specific fixing on CRABP” value on CRABP [3] (in the range of concentrations used, rat testicle) is “linear and non-saturable”. Further, at CRABP [3] (rat testicle), the “character of specific fixing on CRABP” value is “saturable and reversible”; the “non-specific fixing as part of total fixing on CRABP” value was “less than 10%”. In addition, the “concentration of CRABP in rat testicle cytosol found with the marked retinoid” value on CRABP [3] is 10-12 pmol/mg protein. In data set [4], the “stability of the ligand” value is listed as “very stable”. Also, the “ligand fixed to the RARs per cell” value in data set [5] is given as “approximately 4,000 molecules per cell”.
As to `CC1(C)CCC(C)(C)c2cc(-c3cc4ccc(C(=O)O)cc4o3)ccc21` [Compound VI, 2(5,6,7,8-tetrahydro-5,5,8,8-tetramethyl-2-naphthyl)-6 benzo(b)furan carboxylic acid], the EC50 in the data set on F9 cells (F9, 72 h) came to 670 nM. For the same compound, the affinity at CRABP [1], expressed as Kd, was 200 nM. In addition, the IC50 in data set [2] (F9 cells) was determined as 770 nM.
Take `Cc1c(C(=O)O)cc(S)c2cc(-c3ccc4c(c3)C(C)(C)CCC4(C)C)ccc12` [Compound VIII, 1methyl-4-thiol-6-(5,6,7,8-tetrahydro-5,5,8,8-tetramethyl-2-naphthyl)-2-nphthoic acid]: the “biological activity (in words)” value in the data set on F9 cells (F9 cells, FIG. 4) was “biologically inactive; also recorded: below the threshold of detection”. Further, the EC50 in the data set on F9 cells (F9, 72 h) was above 10000 nM. Further, binding at CRABP [1] was characterised by a dissociation constant (Kd) of 200 nM. In addition, in data set [2] (F9 cells, FIG. 4), the “affinity for the RARs (in words)” value was “below the threshold of detection”. Moreover, the IC50 in data set [2] (F9 cells) is above 10000 nM.
For `CC1=C(/C=C/C(C)=C/C=C/C(C)=C/CO)C(C)(C)CCC1` [Retinol], in the data set with F9 cells (setting [7]), the EC50 was found to be 2500 nM. On CRABP [1] (setting [8]), the Kd is 600 nM. For the same compound, the IC50 in data set [2] (F9 cells) worked out at 1400 nM.
As for `CC1(C)CCC(C)(C)c2cc3cc(-c4ccc(C(=O)O)cc4)ccc3cc21` [Compound I, 4-(5,6,7,8-tetrahydro-5,5,8,8-tetramethyl-2-anthracenyl) benzoic acid], in the data set with F9 cells (setting [7]), the EC50 came to 1 nM. In data set [5], the “specific fixing on RARs in presence of excess cold homolog ligand” value was “abolished”. Moreover, the Kd on CRABP [1] (setting [8]) was 4 nM. Moreover, the IC50 in data set [2] (F9 cells) was 0.8 nM. Moreover, in data set [2] (from IC50 of Table 1), the “affinity for the RARs relative to retinoic acid” value is “six times”.
